The source of these data is patent US10895019B2, “Encoded self-assembling chemical libraries (ESACHEL)” (Eidgenoessische Technische Hochschule Zurich, priority 2002, dated 2021).

For assay [1], the target named is human carbonic anhydrase. Kind of assay: carbonic anhydrase activity assay with substrate 4-Nitrophenylacetate (Pocker and Stone). Format: biochemical. As to conditions: absorption at 400 nm, read-out: IC50 towards human carbonic anhydrase. As to the method: We measured the inhibitory concentration 50 [IC50] of 4-sulfonamido benzoic acid propylamide using an activity assay described by Pocker and Stone [(1967), Biochemistry 6, 668-678]. In short, we incubated carbonic anhydrase in separate wells of a transparent 96 well microtiter plate with different concentrations of the inhibitor and the substrate 4-Nitrophenylacetate. The proceeding of the reaction was monitored at the increase of absorption at 400 nm due to formation of the product 4-nitrophenol.

The target in assay [2] is streptavidin (Streptomyces avidinii, UniProt P22629). The settings on record: Green (1966); cited from earlier work.

Usually IC50 stands for the midpoint of a concentration-inhibition curve.

Sequence of streptavidin (P22629 25-183): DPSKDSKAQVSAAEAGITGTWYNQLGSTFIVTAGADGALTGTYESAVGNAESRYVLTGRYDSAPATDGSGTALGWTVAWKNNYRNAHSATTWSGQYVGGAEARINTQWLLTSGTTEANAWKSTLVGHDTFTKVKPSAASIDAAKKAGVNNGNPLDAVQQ

`CCCNC(=O)c1ccc(S(N)(=O)=O)cc1` [4-sulfonamido benzoic acid propylamide]: the IC50 in assay [1] was 6 µM.

`N=C1N[C@H]2[C@H](CS[C@H]2CCCCC(=O)O)N1` [Iminobiotin]: in assay [2], the “affinity to streptavidin relative to biotin” value is recorded as “substantially reduced affinity”.
